{
  "source": "patent US10960084B2",
  "about": "“Modulation of fluid intake” (California Institute of Technology, priority 2018, dated 2021)",
  "key": {"[1]": {"tested_on": "hM4Di-expressing MnPO^GLP1r neurons", "assay": "Slice current-clamp recording, CNO on hM4Di-expressing MnPO^GLP1r neurons", "assay_type": "cell-based, mice", "details": "CNO application", "excerpt": "Procedures for preparation of acute brain slices and recordings with optogenetic stimulations were similar to those described previously^[10],[36]. After decapitation, the brain was removed and immersed in ice-cold solution. Coronal slices ([…]) were cut using a vibratome (VT-1200s, Leica) and moved into HEPES-holding solution (NaCl 92, KCl 2.5, NaH2PO4 1.2, NaHCO3 30, HEPES 20, glucose 25, Na-ascorbate 5, Thiourea 2, Na14 pyruvate 3, MgSO4 2, CaCl2 2, pH 7.35). The slices were allowed to recover at 33° C. for 30 min and then held at room temperature ([…]) until use.\nWhile recording, slices were perfused continuously (˜2 mL/min) with artificial cerebrospinal fluid (ACSF-NaCl 124, KCl2.5, NaH2PO4 1.2, NaHCO3 24, glucose 25, MgSO4 1, CaCl2 2) at 25° C. Neurons were visualized and targeted using an upright IR19 DIC microscope (BX51WI, Olympus). […] In order to confirm the PSCs recorded were GABAergic, picrotoxin (150 μM) was applied through the bath in part of the experiments. […] CNO (˜6 μM) was applied by a puff (30 s) from another glass pipette placed ˜50 μm from the recorded cell."}, "MnPO^nNOS neurons": {"tested_on": "MnPO^nNOS neurons", "assay": "Drinking assays with chemogenetic inhibition of MnPO^nNOS neurons by CNO", "assay_type": "in vivo, mice", "details": "hM4Di in MnPO^nNOS, CNO injection 10 mg/kg", "experimental": "For water-restriction experiments, animals were provided with 1 mL of water daily. For food restriction experiments, animals were provided 0.5 pellets/20 g body weight daily. All assays were performed in a modified lickometer as described previously^[35] or Biodaq monitoring system (Research Diets Inc). For all photometry assays, animals were acclimatized for 10-15 min in the lickometer cage before stimuli were given.\nLong-term access assays: Optogenetic Testing—For FIGS. 1L-N and FIGS. 7L-O, satiated mice were given ad libitum access to water for 20 min with photostimulation. Photostimulation was delivered for 1-s followed by 3-s intervals throughout the behavioral sessions. For FIGS. 2J-M and FIGS. 11C-E, mice were given access to water for 20 min after 24 h water-restriction, and photostimulation was delivered for the first 10 min. For feeding assays (FIGS. 2J-M), animals were single-housed in Biodaq cages after 24 h food-restriction, and chow intake was measured for 20 min with or without light stimulation. For acute inhibition experiments, mice were given access to 150 mM NaCl (FIGS. 5D-E, FIGS. 13E-F), water (FIGS. 1L-N, FIGS. 7L-O, FIGS. 13A-D, FIGS. 13G-H) for 20-30 min after 24 h water-restriction or 300 mM sucrose (FIGS. 1L-N, FIGS. 7L-O) after food-restriction. For all acute inhibition experiments, CNO was injected at 10 mg/kg body weight, 30 min prior to the start of the behavior session. For acute activation experiments, CNO was injected at 1 mg/kg body weight (FIGS. 12L-M), 30 min prior to the start of the behavior session. For FIG. 3A, FIGS. 9A-C, and FIG. 13L, water or saline access was provided for 30 min after 24 hours of water restriction. For FIGS. 4A-B, water or HydroGel (ClearH2O) in a cup was provided for 30 min after 24 and 36 hours of water restriction, respectively. The weight of the cup was measured before and after the behavior session. For FIGS. 4K-L, 0.5 pellets of chow was provided for 30 min after 24 h food-restriction. The entire session was recorded using a camera at 30 fps and ingestion episodes were manually annotated. […]"}},
  "note": "“Also recorded” adds a separate entry of the source.",
  "data": [
    {"compound": "C[N+]1([O-])CCN(C2=Nc3cc(Cl)ccc3Nc3ccccc32)CC1", "note": "[CNO, clozapine-N-oxide]", "values": [
      {"measurement": "neurons in which firing is inhibited", "setting": "[1]", "result": "6/7"},
      {"measurement": "SFO^nNOS-stimulated water intake", "setting": "MnPO^nNOS neurons; SFO^nNOS photostimulation", "result": "severely suppressed water consumption; also recorded: severely reduced"},
      {"measurement": "sucrose (300 mM) consumption", "setting": "MnPO^nNOS neurons; food-restricted animals", "result": "did not decrease sugar; also recorded: did not suppress sucrose consumption"},
      {"measurement": "dehydration-induced water intake", "setting": "MnPO^nNOS neurons; water-restricted animals", "result": "severely suppressed water consumption; also recorded: severely reduced"}
    ]}
  ]
}
